Laboratory results from patent publication US11780893B2, “Kv1.3 blockers” (Zealand Pharma A/S, priority 2019, dated 2023).
Bridge positions count the residues as written; N and C are the ends. Square brackets hold non-standard residues; d marks the D form. Peptide text beside a SMILES is read from it. Nle = CCCC[C@H](N)C(=O)O

Molecular target: T1, human Kv1.3 voltage-gated K+ channel (Homo sapiens, UniProt P22001)
T1 construct: host or cells: CHO-DUKX
Assay: cell-based
Conditions: inhibition of thallium flux, CHO-DUKX cells with human Kv1.3; read-out: IC50

T1 sequence (P22001 whole entry): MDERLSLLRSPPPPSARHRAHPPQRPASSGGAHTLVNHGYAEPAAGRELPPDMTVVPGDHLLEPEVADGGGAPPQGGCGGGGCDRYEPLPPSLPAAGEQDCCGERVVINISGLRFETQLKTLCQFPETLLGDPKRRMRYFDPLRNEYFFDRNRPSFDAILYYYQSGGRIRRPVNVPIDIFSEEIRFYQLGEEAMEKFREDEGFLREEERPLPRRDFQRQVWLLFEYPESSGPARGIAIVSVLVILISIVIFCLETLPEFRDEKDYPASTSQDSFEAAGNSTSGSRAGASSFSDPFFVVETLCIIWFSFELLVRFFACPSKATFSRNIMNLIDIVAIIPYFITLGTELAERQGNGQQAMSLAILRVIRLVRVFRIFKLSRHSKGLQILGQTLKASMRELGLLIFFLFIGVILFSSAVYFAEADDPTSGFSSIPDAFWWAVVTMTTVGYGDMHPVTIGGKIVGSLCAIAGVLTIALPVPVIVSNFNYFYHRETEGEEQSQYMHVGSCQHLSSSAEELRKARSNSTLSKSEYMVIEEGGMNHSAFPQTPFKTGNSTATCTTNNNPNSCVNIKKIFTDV

SMILES	IC50 [nM]
CC[C@H](C)[C@@H]1NC(=O)[C@H](C)NC(=O)[C@H](CCCCN)NC(=O)[C@H](CC(C)C)NC(=O)[C@@H]2CSSC[C@@H](C(=O)N[C@@H](Cc3ccc(O)cc3)C(=O)N3CCC[C@H]3C(=O)N[C@@H](CCCNC(=N)N)C(=O)O)NC(=O)[C@H](CCCCN)NC(=O)[C@@H]3CSSC[C@H](NC(=O)[C@H](CCC(=O)O)NC(=O)[C@H](C(C)C)NC(=O)[C@H](CO)NC(=O)[C@H](C)NC(=O)[C@H](CO)NC(=O)[C@@H](NC(=O)[C@H](CCCNC(=N)N)NC(=O)[C@H](CCSC)NC(=O)[C@H](CC(=O)O)NC(=O)[C@H](CCSC)NC(=O)[C@H](CC(N)=O)NC(=O)CNC(=O)[C@@H](N)CO)CSSC[C@H](NC(=O)[C@H](CCCCN)NC(=O)CNC(=O)[C@H](Cc4ccccc4)NC(=O)[C@H]([C@@H](C)CC)NC(=O)[C@H](CO)NC(=O)CNC1=O)C(=O)N[C@@H](CCSC)C(=O)N[C@@H](CC(N)=O)C(=O)N[C@@H](CCCCN)C(=O)N[C@@H](CCCCN)C(=O)N3)C(=O)N[C@@H](CCCCN)C(=O)N[C@@H](CCC(N)=O)C(=O)N[C@@H](CCCCN)C(=O)N2 [Compound 13] (H-SGNMDMRCSASVECKQKCLKAIGSIFGKCMNKKCKCYPR-OH; disulfide 8-29, 14-34, 18-36)	0.26
CCCC[C@H](NC(=O)[C@@H](N)CC(N)=O)C(=O)N[C@@H](CC(=O)O)C(=O)N[C@@H](CCSC)C(=O)N[C@@H](CCCNC(=N)N)C(=O)N[C@H]1CSSC[C@@H]2NC(=O)[C@H](CCCCN)NC(=O)CNC(=O)[C@H](Cc3ccccc3)NC(=O)[C@H]([C@@H](C)CC)NC(=O)[C@H](CO)NC(=O)CNC(=O)[C@H]([C@@H](C)CC)NC(=O)[C@H](C)NC(=O)[C@H](CCCCN)NC(=O)[C@H](CC(C)C)NC(=O)[C@@H]3CSSC[C@@H](C(=O)N[C@@H](Cc4ccc(O)cc4)C(=O)N4CCC[C@H]4C(=O)N[C@@H](CCCNC(=N)N)C(N)=O)NC(=O)[C@H](CCCCN)NC(=O)[C@H](CSSC[C@H](NC(=O)[C@H](CCC(=O)O)NC(=O)[C@H](C(C)C)NC(=O)[C@H](CO)NC(=O)[C@H](C)NC(=O)[C@H](CO)NC1=O)C(=O)N[C@@H](CCCCN)C(=O)N[C@@H](CCC(N)=O)C(=O)N[C@@H](CCCCN)C(=O)N3)NC(=O)[C@H](CCCCN)NC(=O)[C@H](CCCCN)NC(=O)[C@H](CC(N)=O)NC(=O)[C@H](CCSC)NC2=O [Compound 14] (H-N[Nle]DMRCSASVECKQKCLKAIGSIFGKCMNKKCKCYPR-NH2; disulfide 6-27, 12-32, 16-34)	0.16
CCCC[C@H](NC(=O)[C@H](CC(=O)O)NC(=O)[C@H](CCSC)NC(=O)[C@@H](N)CC(N)=O)C(=O)N[C@@H](CCCNC(=N)N)C(=O)N[C@H]1CSSC[C@@H]2NC(=O)[C@H](CCCCN)NC(=O)CNC(=O)[C@H](Cc3ccccc3)NC(=O)[C@H]([C@@H](C)CC)NC(=O)[C@H](CO)NC(=O)CNC(=O)[C@H]([C@@H](C)CC)NC(=O)[C@H](C)NC(=O)[C@H](CCCCN)NC(=O)[C@H](CC(C)C)NC(=O)[C@@H]3CSSC[C@@H](C(=O)N[C@@H](Cc4ccc(O)cc4)C(=O)N4CCC[C@H]4C(=O)N[C@@H](CCCNC(=N)N)C(N)=O)NC(=O)[C@H](CCCCN)NC(=O)[C@H](CSSC[C@H](NC(=O)[C@H](CCC(=O)O)NC(=O)[C@H](C(C)C)NC(=O)[C@H](CO)NC(=O)[C@H](C)NC(=O)[C@H](CO)NC1=O)C(=O)N[C@@H](CCCCN)C(=O)N[C@@H](CCC(N)=O)C(=O)N[C@@H](CCCCN)C(=O)N3)NC(=O)[C@H](CCCCN)NC(=O)[C@H](CCCCN)NC(=O)[C@H](CC(N)=O)NC(=O)[C@H](CCSC)NC2=O [Compound 15] (H-NMD[Nle]RCSASVECKQKCLKAIGSIFGKCMNKKCKCYPR-NH2; disulfide 6-27, 12-32, 16-34)	0.12
CC[C@H](C)[C@@H]1NC(=O)[C@H](CCCCN)NC(=O)[C@H](CC(C)C)NC(=O)[C@@H]2CSSC[C@@H](C(=O)N[C@@H](Cc3ccc(O)cc3)C(=O)N3CCC[C@H]3C(=O)N[C@@H](CCCNC(=N)N)C(N)=O)NC(=O)[C@H](CCCCN)NC(=O)[C@@H]3CSSC[C@H](NC(=O)[C@H](CCC(=O)O)NC(=O)[C@H](C(C)C)NC(=O)[C@H](CO)NC(=O)[C@H](C)NC(=O)[C@H](CO)NC(=O)[C@@H](NC(=O)[C@H](CCCNC(=N)N)NC(=O)[C@H](CCSC)NC(=O)[C@H](CC(=O)O)NC(=O)[C@H](CCSC)NC(=O)[C@@H](N)CC(N)=O)CSSC[C@H](NC(=O)[C@H](CCCCN)NC(=O)CNC(=O)[C@H](Cc4ccccc4)NC(=O)[C@H]([C@@H](C)CC)NC(=O)[C@H](CO)NC(=O)CNC1=O)C(=O)N[C@@H](CCSC)C(=O)N[C@@H](CC(N)=O)C(=O)N[C@@H](CCCCN)C(=O)N[C@@H](CCCCN)C(=O)N3)C(=O)N[C@@H](CCCCN)C(=O)N[C@@H](CCC(N)=O)C(=O)N[C@@H](CCCCN)C(=O)N2 [Compound 57] (H-NMDMRCSASVECKQKCLKIGSIFGKCMNKKCKCYPR-NH2; disulfide 6-26, 12-31, 16-33)	0.11
CC[C@H](C)[C@@H]1NC(=O)[C@H](CO)NC(=O)CNC(=O)[C@H](CCC(=O)O)NC(=O)[C@H](C)NC(=O)[C@H](CCCCN)NC(=O)[C@H](CC(C)C)NC(=O)[C@@H]2CSSC[C@@H](C(=O)N[C@@H](Cc3ccc(O)cc3)C(=O)N3CCC[C@H]3C(=O)N[C@@H](CCCNC(=N)N)C(N)=O)NC(=O)[C@H](CCCCN)NC(=O)[C@@H]3CSSC[C@H](NC(=O)[C@H](CCC(=O)O)NC(=O)[C@H](C(C)C)NC(=O)[C@H](CO)NC(=O)[C@H](C)NC(=O)[C@H](CO)NC(=O)[C@@H](NC(=O)[C@H](CCCNC(=N)N)NC(=O)[C@H](CCSC)NC(=O)[C@H](CC(=O)O)NC(=O)[C@H](CCSC)NC(=O)[C@@H](N)CC(N)=O)CSSC[C@H](NC(=O)[C@H](CCCCN)NC(=O)CNC(=O)[C@H](Cc4ccccc4)NC1=O)C(=O)N[C@@H](CCSC)C(=O)N[C@@H](CC(N)=O)C(=O)N[C@@H](CCCCN)C(=O)N[C@@H](CCCCN)C(=O)N3)C(=O)N[C@@H](CCCCN)C(=O)N[C@@H](CCC(N)=O)C(=O)N[C@@H](CCCCN)C(=O)N2 [Compound 59] (H-NMDMRCSASVECKQKCLKAEGSIFGKCMNKKCKCYPR-NH2; disulfide 6-27, 12-32, 16-34)	0.035
CC[C@H](C)[C@@H]1NC(=O)[C@H](CO)NC(=O)CNC(=O)[C@H](CCCNC(=N)N)NC(=O)[C@H](C)NC(=O)[C@H](CCCCN)NC(=O)[C@H](CC(C)C)NC(=O)[C@@H]2CSSC[C@@H](C(=O)N[C@@H](Cc3ccc(O)cc3)C(=O)N3CCC[C@H]3C(=O)N[C@@H](CCCNC(=N)N)C(N)=O)NC(=O)[C@H](CCCCN)NC(=O)[C@@H]3CSSC[C@H](NC(=O)[C@H](CCC(=O)O)NC(=O)[C@H](C(C)C)NC(=O)[C@H](CO)NC(=O)[C@H](C)NC(=O)[C@H](CO)NC(=O)[C@@H](NC(=O)[C@H](CCCNC(=N)N)NC(=O)[C@H](CCSC)NC(=O)[C@H](CC(=O)O)NC(=O)[C@H](CCSC)NC(=O)[C@@H](N)CC(N)=O)CSSC[C@H](NC(=O)[C@H](CCCCN)NC(=O)CNC(=O)[C@H](Cc4ccccc4)NC1=O)C(=O)N[C@@H](CCSC)C(=O)N[C@@H](CC(N)=O)C(=O)N[C@@H](CCCCN)C(=O)N[C@@H](CCCCN)C(=O)N3)C(=O)N[C@@H](CCCCN)C(=O)N[C@@H](CCC(N)=O)C(=O)N[C@@H](CCCCN)C(=O)N2 [Compound 60] (H-NMDMRCSASVECKQKCLKARGSIFGKCMNKKCKCYPR-NH2; disulfide 6-27, 12-32, 16-34)	0.035
